Like-named read-outs stand apart in the source and are kept apart here.
Key:
human CB1 receptor = biological target: T1, human CB1 receptor (Homo sapiens, UniProt P21554); experiment: CB1 radioligand competitive binding assay ([3H]CP 55,940 displacement)
T1 construct: host or cells: CHO-K1 (Chinese hamster ovary) cells, stably transfected; membranes prepared in house

human CB2 receptor = biological target: T2, human CB2 receptor (Homo sapiens, UniProt P34972); experiment: CB2 radioligand competitive binding assay ([3H]CP 55,940 displacement); conditions: for Selectivity CB2: fold difference between CB1 and CB2 binding, printed in column of receptor with higher affinity, 1.00 in both = same affinity
T2 construct: host or cells: CHO-K1 (Chinese hamster ovary) cells, stably transfected; membranes prepared in house
T2 sequence (P34972 whole entry): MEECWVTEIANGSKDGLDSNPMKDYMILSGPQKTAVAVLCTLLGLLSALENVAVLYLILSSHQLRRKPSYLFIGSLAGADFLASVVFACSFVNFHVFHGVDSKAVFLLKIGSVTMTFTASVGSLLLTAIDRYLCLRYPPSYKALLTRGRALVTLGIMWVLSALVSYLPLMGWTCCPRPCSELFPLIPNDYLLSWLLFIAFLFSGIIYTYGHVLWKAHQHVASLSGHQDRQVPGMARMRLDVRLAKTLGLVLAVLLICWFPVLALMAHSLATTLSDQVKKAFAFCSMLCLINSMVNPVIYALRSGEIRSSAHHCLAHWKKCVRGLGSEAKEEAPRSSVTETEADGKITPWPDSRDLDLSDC

[1] = [3H]CP 55,940 displacement, membranes of CHO-K1 cells expressing human CB1 receptor, read-out: CB1 IC50
[2] = [3H]CP 55,940 displacement, membranes of CHO-K1 cells expressing human CB2 receptor, read-out: CB2 IC50

T1 sequence (P21554 whole entry): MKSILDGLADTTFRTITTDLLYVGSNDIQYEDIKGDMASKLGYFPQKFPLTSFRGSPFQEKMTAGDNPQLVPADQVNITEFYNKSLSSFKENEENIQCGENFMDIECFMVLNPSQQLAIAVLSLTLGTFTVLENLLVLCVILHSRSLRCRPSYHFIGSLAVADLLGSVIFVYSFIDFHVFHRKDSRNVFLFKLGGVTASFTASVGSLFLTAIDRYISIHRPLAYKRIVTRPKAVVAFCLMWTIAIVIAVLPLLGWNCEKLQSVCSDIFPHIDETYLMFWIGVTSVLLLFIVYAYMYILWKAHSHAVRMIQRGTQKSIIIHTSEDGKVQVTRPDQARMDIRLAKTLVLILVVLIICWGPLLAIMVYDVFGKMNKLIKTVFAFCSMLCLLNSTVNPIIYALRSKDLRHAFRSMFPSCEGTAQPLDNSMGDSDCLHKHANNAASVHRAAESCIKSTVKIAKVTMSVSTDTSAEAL

Structure (SMILES) | IC50 (human CB1 receptor; [1]) | IC50 (human CB2 receptor; [2]) | Selectivity CB2 (human CB2 receptor) | Selectivity CB1 (human CB1 receptor; fold difference between CB1 and CB2 binding, printed in column of receptor with higher affinity, 1.00 in both = same affinity) | IC50 (human CB1 receptor) | IC50 (human CB2 receptor)
CCCCCc1cc(O)c(C2C=C(C)CCC2)c(OCOCC)c1 (stereo not shown) [Compound 17c, 6-(ethoxymethoxy)-5′-methyl-4-pentyl-1′,2′,3′,4′-tetrahydro-[1,1′-biphenyl]-2-ol] | 1000 to 9990 nM | 50 to 990 nM | 2.47 | – | – | –
C=C(C)C1CCC(C)=CC1c1c(O)cc(C(C)(C)CCCCCC)cc1OCN(C(=O)OC)c1ccccc1 (stereo not shown) [Compound 20d, methyl (((6-hydroxy-5′-methyl-4-(2-methyloctan-2-yl)-2′-(prop-1-en-2-yl)-1′,2′,3′,4′-tetrahydro-[1,1′-biphenyl]-2-yl)oxy)methyl)(phenyl)carbamate] | 1000 to 9990 nM | 50 to 990 nM | 1.94 | – | – | –
C=C(C)[C@@H]1CCC(C)=C[C@H]1c1c(O)cc(CCC)cc1OCOC(=O)OCC [Compound 24d, ethyl (((6-hydroxy-5′-methyl-2′-(prop-1-en-2-yl)-4-propyl-1′,2′,3′,4′-tetrahydro-[1,1′-biphenyl]-2-yl)oxy)methyl) carbonate] | 1000 to 9990 nM | 50 to 990 nM | 1.52 | – | – | –
CCCCCc1cc(O)c(C2C=C(C)CCC2)c(OCN(C(=O)OC)c2ccccc2)c1 (stereo not shown) [Compound 14c, methyl (((6-hydroxy-5′-methyl-4-pentyl-1′,2′,3′,4′-tetrahydro-[1,1′-biphenyl]-2-yl)oxy)methyl)(phenyl)carbamate] | 1000 to 9990 nM | 1000 to 9990 nM | – | 1.36 | – | –
CCCCCc1cc(OCOCCOC)c(-c2cccc(C)c2)c(OCOCCOC)c1 [2′a, 2,6-bis((2-methoxyethoxy)methoxy)-3′-methyl-4-pentyl-1,1′-biphenyl] | > 10000 nM | 50 to 990 nM | 19.73 | – | – | –
CCCCCc1cc(O)c(C2C=C(C)CCC2)c(OCOC(=O)OCC)c1 (stereo not shown) [Compound 5c, ethyl (((6-hydroxy-5′-methyl-4-pentyl-1′,2′,3′,4′-tetrahydro-[1,1′-biphenyl]-2-yl)oxy)methyl) carbonate] | 1000 to 9990 nM | 50 to 990 nM | 9.09 | – | – | –
C=C(C)C1CCC(C)=CC1c1c(OCOC(=O)C(C)(C)C)cc(C(C)(C)CCCCCC)cc1OCOC(=O)C(C)(C)C (stereo not shown) [21′d, ((5′-methyl-4-(2-methyloctan-2-yl)-2′-(prop-1-en-2-yl)-1′,2′,3′,4′-tetrahydro-[1,1′-biphenyl]-2,6-diyl)bis(oxy))bis(methylene) bis(2,2-dimethylpropanoate)] | > 10000 nM | 1000 to 9990 nM | 13.33 | – | – | –
C=C(C)C1CCC(C)=CC1c1c(O)cc(CCCCC)cc1OCOCCOC (stereo not shown) [Compound 2d, 6-((2-methoxyethoxy)methoxy)-5′-methyl-4-pentyl-2′-(prop-1-en-2-yl)-1′,2′,3′,4′-tetrahydro-[1,1′-biphenyl]-2-ol] | 1000 to 9990 nM | 1000 to 9990 nM | 1.59 | – | – | –
CCCCCc1cc(O)c(C2C=C(C)CCC2)c(OCOCCOC)c1 (stereo not shown) [Compound 2c, 6-((2-methoxyethoxy)methoxy)-5′-methyl-4-pentyl-1′,2′,3′,4′-tetrahydro-[1,1′-biphenyl]-2-ol] | 1000 to 9990 nM | 50 to 990 nM | 13.33 | – | – | –
C=C(C)C1CCC(C)=CC1c1c(OCOCC)cc(C(C)(C)CCCCCC)cc1OCOCC (stereo not shown) [19′d, 2′,6′-bis(ethoxymethoxy)-5-methyl-4′-(2-methyloctan-2-yl)-2-(prop-1-en-2-yl)-1,2,3,4-tetrahydro-1,1′-biphenyl] | 1000 to 9990 nM | 1000 to 9990 nM | 2.00 | – | – | –
C=C(C)C1CCC(C)=CC1c1c(O)cc(C(C)(C)CCCCCC)cc1OCOC(=O)C(C)(C)C (stereo not shown) [Compound 21d, ((6-hydroxy-5′-methyl-4-(2-methyloctan-2-yl)-2′-(prop-1-en-2-yl)-1′,2′,3′,4′-tetrahydro-[1,1′-biphenyl]-2-yl)oxy)methyl pivalate] | 1000 to 9990 nM | 1000 to 9990 nM | 1.25 | – | – | –
C=C(C)C1CCC(C)=CC1c1c(OCOCC)cc(CCCCC)cc1OCOCC (stereo not shown) [17′d, 2′,6′-bis(ethoxymethoxy)-5-methyl-4′-pentyl-2-(prop-1-en-2-yl)-1,2,3,4-tetrahydro-1,1′-biphenyl] | 1000 to 9990 nM | 50 to 990 nM | 3.03 | – | – | –
CCCCCc1cc(OCOCC)c(-c2cccc(C)c2)c(OCOCC)c1 [17′a, 2,6-bis(ethoxymethoxy)-3′-methyl-4-pentyl-1,1′-biphenyl] | 1000 to 9990 nM | 50 to 990 nM | 8.97 | – | – | –
CCCCCc1cc(O)c(-c2cccc(C)c2)c(OCOC(=O)OCC)c1 [Compound 5a, ethyl [3-hydroxy-2-(m-tolyl)-5-pentyl-phenoxy]methyl carbonate] | – | – | 7.89 | – | 1000 to 9990 nM | 50 to 990 nM
C=C(C)C1CCC(C)=CC1c1c(OCOCCOC)cc(CCCCC)cc1OCOCCOC (stereo not shown) [2′d, 2′,6′-bis((2-methoxyethoxy)methoxy)-5-methyl-4′-pentyl-2-(prop-1-en-2-yl)-1,2,3,4-tetrahydro-1,1′-biphenyl] | 1000 to 9990 nM | 50 to 990 nM | 2.50 | – | – | –
CCCCCc1cc(OCOC(=O)C(C)(C)C)c(C2C=C(C)CCC2)c(OCOC(=O)C(C)(C)C)c1 (stereo not shown) [8′c, ((5′-methyl-4-pentyl-1′,2′,3′,4′-tetrahydro-[1,1′-biphenyl]-2,6-diyl)bis(oxy))bis(methylene)bis(2,2-dimethylpropanoate)] | 50 to 990 nM | < 50 nM | 6.38 | – | – | –
CCCCCc1cc(O)c(-c2cccc(C)c2)c(OCOCC)c1 [Compound 17a, 6-(ethoxymethoxy)-3′-methyl-4-pentyl-[1,1′-biphenyl]2-ol] | 1000 to 9990 nM | 1000 to 9990 nM | 5.20 | – | – | –
CCCCCc1cc(O)c(C2C=C(C)CCC2)c(OCOC(=O)C(C)(C)C)c1 (stereo not shown) [Compound 8c, ((6-hydroxy-5′-methyl-4-pentyl-1′,2′,3′,4′-tetrahydro-[1,1′-biphenyl]-2-yl)oxy)methyl pivalate] | 50 to 990 nM | < 50 nM | 8.85 | – | – | –
C=C(C)C1CCC(C)=CC1c1c(O)cc(C(C)(C)CCCCCC)cc1OCOCC (stereo not shown) [Compound 19d, 6-(ethoxymethoxy)-5′-methyl-4-(2-methyloctan-2-yl)-2′-(prop-1-en-2-yl)-1′,2′,3′,4′-tetrahydro-[1,1′-biphenyl]-2-ol] | 50 to 990 nM | 50 to 990 nM | 1.83 | – | – | –
C=C(C)[C@@H]1CCC(C)=C[C@H]1c1c(O)cc(C(C)(C)CCCCCC)cc1OCOC(=O)OCC [Compound 22d, ethyl (((6-hydroxy-5′-methyl-4-(2-methyloctan-2-yl)-2′-(prop-1-en-2-yl)-1′,2′,3′,4′-tetrahydro-[1,1′-biphenyl]-2-yl)oxy)methyl) carbonate] | 50 to 990 nM | < 50 nM | 1.67 | – | – | –
C=C(C)C1CCC(C)=CC1c1c(O)cc(CCCCC)cc1OCOC(=O)C(C)(C)C (stereo not shown) [Compound 8d, ((6-hydroxy-5′-methyl-4-pentyl-2′-(prop-1-en-2-yl)-1′,2′,3′,4′-tetrahydro-[1,1′-biphenyl]-2-yl)oxy)methyl pivalate] | 50 to 990 nM | 50 to 990 nM | 1.76 | – | – | –
CCCCCc1cc(OCOCC)c(C2C=C(C)CCC2)c(OCOCC)c1 (stereo not shown) [17′c, 2′,6′-bis(ethoxymethoxy)-5-methyl-4′-pentyl-1,2,3,4-tetrahydro-1,1′-biphenyl] | 1000 to 9990 nM | – | – | – | – | –
